Source: patent US20240016784A1, “Y BOX BINDING PROTEIN 1 INHIBITORS” (Oregon Health & Science University, priority 2020, published 2024)
pIC50: −log10 of the molar value.

Key:
Assay type in all cases: cell-based
MCF7 = test: NCI-60 cell line panel; conditions: Homo sapiens, 48 hours
Excerpt: (§1) FIG. 17: Assay of SU056 in NCI-60 cell line panel.

COLO 205 = test: NCI-60 cell line panel; conditions: Homo sapiens, 48 hours
Excerpt: as §1

OVCAR-4 = test: NCI-60 cell line panel; conditions: Homo sapiens, 48 hours
Excerpt: as §1

SF-268 = test: NCI-60 cell line panel; conditions: Homo sapiens, 48 hours
Excerpt: as §1

T-47D = test: NCI-60 cell line panel; conditions: Homo sapiens, T47D, 48 hours
Excerpt: as §1

BT-549 = test: NCI-60 cell line panel; conditions: Homo sapiens, 48 hours
Excerpt: as §1

EKVX = test: NCI-60 cell line panel; conditions: Homo sapiens, 48 hours
Excerpt: as §1

MOLT-4 = test: NCI-60 cell line panel; conditions: Homo sapiens, 48 hours
Excerpt: as §1

KM12 = test: NCI-60 cell line panel; conditions: Homo sapiens, 48 hours
Excerpt: as §1

UACC-257 = test: NCI-60 cell line panel; conditions: Homo sapiens, 48 hours
Excerpt: as §1

SW-620 = test: NCI-60 cell line panel; conditions: Homo sapiens, 48 hours
Excerpt: as §1

MDA-MB-468 = test: NCI-60 cell line panel; conditions: Homo sapiens, 48 hours
Excerpt: as §1

NCI-H23 = test: NCI-60 cell line panel; conditions: Homo sapiens, 48 hours
Excerpt: as §1

OVCAR-8 = test: NCI-60 cell line panel; conditions: Homo sapiens, 48 hours
Excerpt: as §1

HT29 = test: NCI-60 cell line panel; conditions: Homo sapiens, HT-29, 48 hours
Excerpt: as §1

HCT-116 = test: NCI-60 cell line panel; conditions: Homo sapiens, 48 hours
Excerpt: as §1

HCT-15 = test: NCI-60 cell line panel; conditions: Homo sapiens, 48 hours
Excerpt: as §1

786-0 = test: NCI-60 cell line panel; conditions: Homo sapiens, 48 hours
Excerpt: as §1

RXF 393 = test: NCI-60 cell line panel; conditions: Homo sapiens, 48 hours
Excerpt: as §1

MDA-MB-435 = test: NCI-60 cell line panel; conditions: Homo sapiens, 48 hours
Excerpt: as §1

SR = test: NCI-60 cell line panel; conditions: Homo sapiens, 48 hours
Excerpt: as §1

HS 578T = test: NCI-60 cell line panel; conditions: Homo sapiens, 48 hours
Excerpt: as §1

OVCAR-3 = test: NCI-60 cell line panel; conditions: Homo sapiens, 48 hours
Excerpt: as §1

TK-10 = test: NCI-60 cell line panel; conditions: Homo sapiens, 48 hours
Excerpt: as §1

M14 = test: NCI-60 cell line panel; conditions: Homo sapiens, 48 hours
Excerpt: as §1

NCI/ADR-RES = test: NCI-60 cell line panel; conditions: Homo sapiens, 48 hours
Excerpt: as §1

PC-3 = test: NCI-60 cell line panel; conditions: Homo sapiens, 48 hours
Excerpt: as §1

SK-MEL-28 = test: NCI-60 cell line panel; conditions: Homo sapiens, 48 hours
Excerpt: as §1

SNB-19 = test: NCI-60 cell line panel; conditions: Homo sapiens, 48 hours
Excerpt: as §1

OVCAR-8 and ID8 cells = test: Clonogenic assay
Experimental: We tested the relationship between AzPs dose and the viability of human ovarian cancer cell lines and the ID8 murine ovarian cancer cell line.
Clonogenic assay: 300 suspended OC cells were plated in each well of 12 well plates (Corning-Costar, #3598) and incubated for 24 h for attachment. The media was replaced after 24 h with media containing a respective concentration of the test compound and incubated for 5-8 days until visible colonies appeared in vehicle-treated wells. Cells were then washed and fixed with 2% paraformaldehyde, followed by washing and staining with 0.5% Crystal violet for 1 h. Cells were de-stained using DI water and allowed to dry. Colonies were counted under the microscope at 100× magnification.
FIG. 1A) Lead optimization of SU093 to obtain SU056. FIG. 1B) IC50 values of SU093 and SU056 on various ovarian cancer cells. Clonogenic survival of OC cells treated with SU093 or SU056. […] FIG. 1C) Representative colony formation from respective wells. FIG. 1D) Number of colonies formed after SU093 and SU056 treatment. […] FIG. 1F) Cell cycle distribution of propidium iodide (PI)-stained OVCAR8, SKOV3, and ID8 cells. […] FIG. 1G) Effects of SU093 and SU056 on apoptotic cell death analyzed by Annexin-FITC staining. […] FIG. 1H) Cell migration assay.

OC cell lines = test: Cell migration assay (Boyden chamber); conditions: different OC cell lines, P<0.05
Experimental: To determine whether proliferation inhibition was the dominant factor driving the reduction in OC viability seen with AzP treatment, we used propidium iodide and annexin-FITC stains with flow cytometry to measure the distribution of cell cycle phases after treatment. […] Furthermore, in the Boyden chamber assay for cell migration, SU093 inhibited cell migration by 40-46% (1 μM, P<0.05) in different OC cell lines.
Cell migration assay: 1×10^5 cells were plated in 60 mm cell culture dishes (Corning-Falcon, #353002) and incubated for 24 h. […] Cells were trypsinized and collected in a conical tube for each plate. Pellets of cells were resuspended, and live cells were counted using a hemocytometer and trypan blue staining. 40,000 live cells were then plated in the upper chamber of 8-micron transwell (Corning-Falcon, #353097) with 0.2% FBS media. The lower chamber contained 10% FBS complete media. […] Each transwell was washed, swiped for non-migrated cells and fixed using 75% ethanol. Fixed transwells were stained with 0.5% crystal violet for 1 h. De-stained transwell membranes were cut and mounted on a slide using DPX mounting media. Migrated cells were counted under the microscope at 100× magnification.
FIG. 1A) Lead optimization of SU093 to obtain SU056. […] FIG. 1G) Effects of SU093 and SU056 on apoptotic cell death analyzed by Annexin-FITC staining. […]

O=C1OCC2=C1C(c1cccc(F)c1)c1cc3c(cc1N2CCO)OCO3 (stereo not shown) [SU056, 9-(3-fluorophenyl)-5-(2-hydroxyethyl)-6,9-dihydro-[1,3]dioxolo[4,5-g]furo[3,4-b]quinolin-8(5H)-one]
pIC50 (MCF7): 5.84
pIC50 (COLO 205): 5.84
pIC50 (OVCAR-4): 4.33
pIC50 (SF-268): 5.49
pIC50 (T-47D): 5.66
pIC50 (BT-549): 5.84
pIC50 (EKVX): 5.52
pIC50 (MOLT-4): 5.52
pIC50 (KM12): 5.83
pIC50 (UACC-257): 4.30
pIC50 (SW-620): 5.78
pIC50 (MDA-MB-468): 5.95
pIC50 (NCI-H23): 5.40
pIC50 (OVCAR-8): 5.50
pIC50 (HT29): 5.82
pIC50 (HCT-116): 5.82
pIC50 (HCT-15): 5.97
pIC50 (786-0): 5.73
pIC50 (RXF 393): 5.82
pIC50 (MDA-MB-435): 6.73
pIC50 (SR): 6.53
pIC50 (HS 578T): 5.85
pIC50 (OVCAR-3): 5.90
pIC50 (TK-10): 4.81
pIC50 (M14): 6.45
pIC50 (NCI/ADR-RES): 5.69
pIC50 (PC-3): 5.84
pIC50 (SK-MEL-28): 4.69
pIC50 (SNB-19): 5.52
OC colony formation (OVCAR-8 and ID8 cells): decreased OC colony formation in a dose-dependent and significant manner
inhibition at 1 µM (OC cell lines): 78 to 87%
